The source of these data is paper PMC4466525, “Design, Synthesis and Structure-Activity Relationship Studies of Novel Survivin Inhibitors with Potent Anti-Proliferative Properties” (PLoS ONE, 2015).

SMILES strings stand for the structures. Converted amounts (≈) assume the structure as drawn. Where two headings read alike, the source gives them in different places.

One series concerns M14. The series can be described thus: Cell viability (MTS) anti-proliferative assay, M14. The format is cell-based. The conditions noted are these: M14 human melanoma, 48 h treatment, n = 4, read-out: IC50 values ± SEM, M14. On the procedure: The anti-proliferative effect of UC-112 and its analogs were tested in human melanoma (A375, M14 and M14/LCC6MDR1) and human prostate cancer (PC-3) cell lines. All the cell lines were purchased from ATCC (American Type Culture Collection, Manassas, VA). The cancer cells were cultured using the supplemented cell culture medium as described before at 37°C in a humidified atmosphere containing 5% CO2. 5000 cells in logarithm growing phase were seeded overnight into each well of a 96-well plate. Then the cells were continuously incubated with sequential diluted compound solution (10 nM to 100 μM, 100 μl per well) in cell culture medium.

A short description of series [1]: Aqueous solubility, shake-flask method. The class given is physicochemical. The following applies: PBS buffer, thermodynamic from solid, PBS pH 7.4, test concentration 200 μM. On the procedure: (§1) All these experiments were performed by a contract research service company, Eurofins Panlabs Inc. (Study Number 100017964). Aqueous solubility (μM) was determined using the shake-flask method by comparing the peak area of the principal peak in a calibration standard (200 μM) containing organic solvent (methanol/water, 60/40, v/v) with the peak area of the corresponding peak in a buffer sample. Metabolic stability study was carried out by incubating compound 4g with human liver microsomes. Metabolic stability which is expressed as percent of the parent compound remaining, was calculated by comparing the peak area of the compound at the time point relative to that at time-0. The half-life (T1/2) was estimated from the slope of the initial linear range of the logarithmic curve of compound remaining (%) vs. time. In the cytochrome P450 inhibition study, human liver microsomes (0.1 mg/mL) were incubated with different substrates and compound 4g for 10 minutes. After the incubation, peak areas corresponding to the metabolite of each substrate were recorded. The percent of control activity was then calculated by comparing the peak area obtained in the presence of compound 4g to that obtained in the absence of compound 4g. Subsequently, the percent inhibition was calculated by subtracting the percent control activity from 100.

The next series deals with T1, CYP2B6 (Homo sapiens, UniProt P20813).
T1 construct: tissue Eurofins Panlabs Inc. (contract research service) Study Number 100017964; host or cells: human liver microsomes
T1 sequence (P20813 whole entry): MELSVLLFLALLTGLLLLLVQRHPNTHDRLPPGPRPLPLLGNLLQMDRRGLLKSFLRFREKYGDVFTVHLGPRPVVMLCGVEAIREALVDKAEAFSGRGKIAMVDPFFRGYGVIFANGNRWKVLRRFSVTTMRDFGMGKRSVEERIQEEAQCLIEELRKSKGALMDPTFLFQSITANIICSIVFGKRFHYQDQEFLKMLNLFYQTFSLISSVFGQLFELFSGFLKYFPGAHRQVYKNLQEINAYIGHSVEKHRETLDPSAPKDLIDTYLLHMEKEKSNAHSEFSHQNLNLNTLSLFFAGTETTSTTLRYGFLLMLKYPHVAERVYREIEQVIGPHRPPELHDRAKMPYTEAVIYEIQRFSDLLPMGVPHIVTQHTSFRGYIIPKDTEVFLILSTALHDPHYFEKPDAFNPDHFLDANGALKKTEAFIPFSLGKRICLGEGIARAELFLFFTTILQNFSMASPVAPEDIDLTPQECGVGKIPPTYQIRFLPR
Kind of series: Cytochrome P450 inhibition, CYP2B6. The class given is in vitro ADME. The following applies: probe bupropion, substrate bupropion, human liver microsomes 0.1 mg/mL, read-out: % inhibition of control values, CYP2B6. On the procedure: as §1
(Liver microsomes are a subcellular fraction often used to study metabolism.)

The target in the next series is T2, CYP2C9 (Homo sapiens, UniProt P11712).
T2 construct: tissue Eurofins Panlabs Inc. (contract research service) Study Number 100017964; host or cells: human liver microsomes
T2 sequence (P11712 whole entry): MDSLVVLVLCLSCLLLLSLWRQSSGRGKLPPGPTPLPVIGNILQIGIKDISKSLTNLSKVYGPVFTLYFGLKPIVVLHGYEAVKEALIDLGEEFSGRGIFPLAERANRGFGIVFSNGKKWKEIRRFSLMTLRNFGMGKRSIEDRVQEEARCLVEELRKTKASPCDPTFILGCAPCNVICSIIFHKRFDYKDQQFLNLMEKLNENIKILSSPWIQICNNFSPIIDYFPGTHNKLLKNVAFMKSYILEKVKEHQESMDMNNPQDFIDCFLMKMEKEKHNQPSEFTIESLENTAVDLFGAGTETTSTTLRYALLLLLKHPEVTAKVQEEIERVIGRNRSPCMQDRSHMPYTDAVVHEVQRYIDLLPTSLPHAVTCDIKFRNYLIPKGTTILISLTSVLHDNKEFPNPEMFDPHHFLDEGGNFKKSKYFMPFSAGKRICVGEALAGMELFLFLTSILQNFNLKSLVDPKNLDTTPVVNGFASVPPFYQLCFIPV
The series can be described thus: Cytochrome P450 inhibition, CYP2C9. The conditions noted are these: probe diclofenac, substrate diclofenac, human liver microsomes 0.1 mg/mL, read-out: % inhibition of control values, CYP2C9. The class given is in vitro ADME. The protocol: as §1

The next series has as its target T3, CYP2C19 (Homo sapiens, UniProt P33261).
T3 construct: tissue Eurofins Panlabs Inc. (contract research service) Study Number 100017964; host or cells: human liver microsomes
Kind of series: Cytochrome P450 inhibition, CYP2C19. The conditions noted are these: probe omeprazole, substrate omeprazole, human liver microsomes 0.1 mg/mL, read-out: % inhibition of control values, CYP2C19. The class given is in vitro ADME. On the procedure:
as §1

The next series concerns CYP3A. The series can be described thus: Cytochrome P450 inhibition, CYP3A. The conditions noted are these: human liver microsomes 0.1 mg/mL. The class given is in vitro ADME. The protocol:
as §1

The target in series [2] is T4, survivin (Homo sapiens, UniProt O15392).
T4 construct: endogenous in cells; host or cells: A375 cells
T4 sequence (O15392 whole entry): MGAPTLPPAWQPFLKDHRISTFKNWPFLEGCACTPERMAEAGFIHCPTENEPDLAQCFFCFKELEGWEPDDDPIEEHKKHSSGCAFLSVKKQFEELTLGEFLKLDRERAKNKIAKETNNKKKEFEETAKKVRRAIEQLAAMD
Kind of series: Western blotting of survivin level, PC-3 cells. The class given is cell-based. The conditions noted are these: 24 h. Background: In western blotting, separated proteins are transferred to a membrane and probed.

The subject of a further series is caspase 3/7. The series can be described thus: Caspase 3/7 functional assay (Caspase-Glo 3/7). The following applies: 1 μM, 24 h, A375 or PC-3 cells, N = 3. The format is cell-based, human. The protocol:
The caspase 3/7 activity of cancer cells treated by DMSO control or compound of interest was analyzed using Glo Caspase-Glo 3/7 kit from Promega Corporation (Madison, WI) as per manufacturer’s instructions in similar protocol as described before. The readings of relative luminescence unit were normalized by the cell viability read from the same well determined by compatible CytoTox-Fluor Cytotoxicity assay kit (Promega, WI).

Series [3] concerns the target T4, survivin. The series can be described thus: DARTS assay, survivin. The format is binding. The conditions noted are these: 20 μM, pronase-digested A375 or M14 cell lysates. On the procedure: (§2) Drug affinity responsive target stability (DARTS) assay was performed to identify the protein targets of UC-112 analogs in A375 or M14 cell lysates following the protocols described in the literature. Briefly, A375 or M14 lysates were prepared in non-denaturing M-PER lysis buffer (Thermo Fisher Scientific, Waltham, MA) with protease and phosphatase inhibitors. Then TNC (Tris, NaCl, CaCl2) buffer was added into cell lysates before the total protein concentration of lysate being determined by BCA protein assay kit (Thermo Fisher Scientific, Waltham, MA). The lysates were split into two groups: one group was added with compound of interest solution, the other group was added with same amount of vehicle (DMSO). The samples were mixed thoroughly and incubated at room temperature for 1 h. Then 10 mg/mL pronase stock solution was added into both compound treated or vehicle control groups to achieve the final dilution of 1:100, 1:300, 1:1000 and 1:3000. One aliquot of each group was kept as un-digested control. The proteolysis was performed at room temperature for 30 min before ice cold protease inhibitor stock being added into the mixture. Then SDS loading buffer was added into all the samples and heated to 70°C for 10 min. Finally, the results were analyzed by SDS-PAGE and immunoblotting.

The next series has as its system XIAP, cIAP1 or cIAP2. Kind of series: DARTS assay, other IAPs. The class given is binding, human. The conditions noted are these: 20 μM, pronase-digested A375 or M14 cell lysates. On the procedure: as §2
The test system of series [4] is human melanoma A375 xenograft. The series can be described thus: In vivo anti-tumor efficacy, A375 xenograft. On the set-up: species or system nude mouse. The source says:
3 × 10^6 A375 cells were implanted into the left-side dorsal flank of each nude mouse (n = 5) to establish the human melanoma A375 tumor xenograft model as described previously. Compound 4g were first dissolved in DMSO then diluted by 2% methylcellulose PBS buffer. The proportion of DMSO in final solution was kept at lower than 5%. Mice body weight and the size of tumor were closely monitored during the 3 week continuous treatment (i.p. injection, one dose per day, five days per week). At the end point of the treatment, mice were sacrificed after anesthesia. A375 tumor tissues were isolated then freshly lysed on ice to check the targeted protein levels through Western blotting.
A375 tumor tissues collected from the in vivo efficacy study in the above were fixed in formalin phosphate buffer for one week. Then the tissues were processed to get paraffin embedded sections. TUNEL assay was performed using DeadEnd Fluorometric kit (Promega Corporation, Madison, WI) following manufacturer’s instructions. By the end of the experiment, VECTASHIELD Hard Set mounting medium with DAPI (Vector Lab, Inc., Burlingame, CA) was used to mount the tumor slides and stain the nuclei. The final slides were analyzed immediately under a fluorescence microscope (EVOS FL Cell Imaging System, Thermo Fisher Scientific Inc., NY).

Usually IC50 stands for the concentration at which inhibition is half-maximal. One may read the solubility as the concentration that dissolves in the medium under given conditions. A lower solubility goes with a poorly soluble substance. As a reminder, the inhibition is the percentage by which the read-out fell short of the control.

T3 sequence (P33261 whole entry): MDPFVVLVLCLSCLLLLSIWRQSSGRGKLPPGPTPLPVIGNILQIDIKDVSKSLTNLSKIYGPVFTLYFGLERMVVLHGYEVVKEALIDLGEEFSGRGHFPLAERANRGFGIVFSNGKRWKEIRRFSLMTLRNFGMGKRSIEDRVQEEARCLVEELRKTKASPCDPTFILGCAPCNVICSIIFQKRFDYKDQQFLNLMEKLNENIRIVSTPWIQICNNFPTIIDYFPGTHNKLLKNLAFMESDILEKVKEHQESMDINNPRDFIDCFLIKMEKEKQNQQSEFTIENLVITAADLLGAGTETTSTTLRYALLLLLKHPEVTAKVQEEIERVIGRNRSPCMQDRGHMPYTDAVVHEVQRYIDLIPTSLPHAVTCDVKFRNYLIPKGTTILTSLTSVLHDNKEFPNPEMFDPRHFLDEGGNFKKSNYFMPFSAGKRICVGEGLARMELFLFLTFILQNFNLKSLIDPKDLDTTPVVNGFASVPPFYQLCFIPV

Regarding `CC(C)c1ccc(COCc2cc(CN3CCCC3)c(O)c3ncccc23)cc1` [4g, 5-(((4-isopropylbenzyl)oxy)methyl)-7-(pyrrolidin-1-ylmethyl)quinolin-8-ol], the IC50 with M14 was determined as 800 ± 200 nM. In addition, the concentration in solution in series [1] (solubility) came to 149 µM (≈ 58.1 µg/mL). Also, the inhibition at 10 min on CYP2B6 came to 21%; at CYP2C9, 17%; on CYP2C19, 45%; in the series with CYP3A (probe midazolam, substrate midazolam, read-out: % inhibition of control values, CYP3A (midazolam)) it was 3%; in the series with CYP3A (probe testosterone, substrate testosterone, read-out: % inhibition of control values, CYP3A (testosterone)) it was 29%. Besides, on survivin [2] (300 nM, lane density by ImageJ), the “Reduction of survivin level, PC-3” value is “over 50%”. Further, the “Effect on survivin level, PC-3” value on survivin [2] (gradient increasing dose) is “dose-dependently suppressed survivin level”. Also, in the series on caspase 3/7, the “Caspase 3/7 activation relative to DMSO control group” value is recorded as “up to 4 folds”. Further, the “Protease susceptibility of survivin (DARTS)” value at survivin [3] was “significantly reduced”. The “Effect on protease susceptibility of other IAPs (DARTS)” value in the series on XIAP, cIAP1 or cIAP2 is recorded as “negligible effects”. Further, the “Tumor growth slower than vehicle control group, 20 mg/kg” value in series [4] (20 mg/kg i.p., three weeks, A375 xenograft) worked out at 53%. In addition, the “Tumor growth slower than vehicle control group, 40 mg/kg” value in [4] (40 mg/kg i.p., three weeks, A375 xenograft) was 79%. Further, the “TUNEL assay of tumor tissues” value in series [4] (40 mg/kg, formalin-fixed tumor sections) was “widely-spread cell apoptosis”. The “Expression levels of survivin and XIAP protein in tumor tissues” value in [4] (Western blotting of A375 xenograft tumor tissues from treated groups) was “decreased”. The Mice body weight result in series [4] (three weeks i.p. treatment) is on record as “without causing obvious decrease of mice body weight”.
